Measurements published in article PMC10111413 (ACS Infectious Diseases, 2023).
≈ marks a conversion by molar mass, not a printed value. Where a SMILES comes first, the peptide text is derived from it. Bridges are numbered along the chain shown (N, C = ends). [ ]: non-standard residue; d: D form. The star is where a group is joined. ξ: configuration not given here. Hexanoyl(4ξ-Me) = CCC(C)CCC(=O)*; dOrn = NCCC[C@@H](N)C(=O)O; Orn = NCCC[C@H](N)C(=O)O

Tests used:
Format in all cases: cell-based
E. coli ATCC 25922 mcr-1 = conditions: CLSI microbroth dilution, Mueller Hinton broth, 18 h at 37 °C, visual read-out, three technical replicates; mcr-1 colistin resistance plasmid
Experimental: (§1) The antibacterial activities of relacidine A (3a) and B (4a), along with diastereomers 3b and 4b–d and relacidamide (5), were assessed using a standard microbroth dilution assay to establish minimum inhibitory concentration (MIC) values against a panel of Gram-negative bacteria (Table 1). The MIC values measured for synthetic relacidine A (3a) and B (4a) agree well with those previously published.[9] […] Relacidine A (3a) and B (4a), as well as relacidamide (5), were further tested against a panel of colistin-resistant A. baumannii clinical isolates, which confirmed their ability to prevent the growth of colistin-resistant isolates (Supplemental Table S2). […] Also of interest was the finding that while relacidine B (4a) induced <1% hemolysis, a substitution of either the L-Ala or L-Ser to D-Ala or D-Ser increased hemolytic activity to 8–12%. […] The greater hydrolytic stability of relacidine B would appear to be attributable to the increased steric bulk of the Ala side chain next to the ester linkage (compared with the methylene of Gly in relacidine A), which may hinder the nucleophilic attack of water at the ester carbonyl.
(§2) Colistin sulfate was purchased from Activate Scientific. Kanamycin monosulfate was purchased from MP Biomedicals. E. coli ATCC 25922, S. aureus USA300 (ATCC BAA1717), and K. pneumoniae ATCC 13883 belong to the American Type Culture Collection (ATCC). P. aeruginosa PAO1 was kindly provided by L.H.C. Quarles Van Ufford of Utrecht University, Utrecht, The Netherlands. E. coli ATCC 25922 MCR-1 was transfected in-house using the pGDP2-MCR1 plasmid kindly provided by Yong-Xin Li of The University of Hong Kong, Hong Kong, China. Sheep blood agar plates (ref. PB5039A) were purchased from Thermo Scientific. Tryptic soy broth (ref. 02-200-500) was purchased from Scharlab. Mueller-Hinton broth (ref. X927.1) was purchased from Carl Roth. Polypropylene 96-wells plates (ref. 3879) were purchased from Corning.
(§3) MICs were determined according to Clinical and Standards Laboratory Institute (CLSI) guidelines. Blood agar plates were inoculated with glycerol stocks of E. coli ATCC 25922, K. pneumoniae ATCC 13883, P. aeruginosa PAO1, and S. aureus USA300. The inoculated agar plates were then incubated for 16 h at 37 °C. Individually grown colonies were subsequently used to inoculate 5 mL aliquots of tryptic soy broth (TSB) that were then incubated at 37 °C with shaking at 220 rpm. E. coli 25922 MCR-1 glycerol stock was used to inoculate 5 mL of TSB supplemented with kanamycin that was then incubated for 16 h at 37 °C with shaking at 220 rpm. The next day, the culture was diluted 100-fold in TSB supplemented with kanamycin and incubated at 37 °C with shaking at 220 rpm. In parallel, the lipopeptide antibiotic DMSO stocks to be assessed were serially diluted with Mueller Hinton broth (MHB) in polypropylene 96-well plates (50 μL in each well). Colistin sulfate stocks were dissolved in water before being diluted with MHB. Aliquots of the inoculated TSB were incubated until an OD600 of around 0.5 was reached. The bacterial suspensions were then diluted with MHB (2 × 10^5 cfu mL^–1) and added to the microplates containing the test compounds (50 μL to each well). The well plates were sealed with an adhesive membrane, and after 18 h of incubation at 37 °C with shaking at 600 rpm, the wells were visually inspected for bacterial growth. MIC values reported are based on three technical replicates and defined as the lowest concentration of the compound that prevented visible growth of bacteria.

K. pneumoniae ATCC 13883 = conditions: ATCC 13883, 18 h
Experimental: as §1, §2, §3

S. aureus USA300 = conditions: USA300, 18 h
Experimental: as §1, §2, §3

E. coli ATCC 25922 = conditions: ATCC 25922, 18 h
Experimental: as §1, §2, §3

P. aeruginosa PAO1 = conditions: PAO1, 18 h
Experimental: as §1, §2, §3

A. baumannii LAC-4 = conditions: LAC-4, 18 h
Experimental: (§4) VIII. Antimicrobial testing
(§5) Table S2. Minimum inhibitory concentrations (MICs) determined against panel of previously characterized colistin-resistant A. baumannii clinical isolates5
(§6) Strain Relacidine A (3a) Relacidine B (4a) Relacidamide (5) Colistin […]
(§7) aMIC values given in µg/ml.
(§8) All minimum inhibitory concentrations were determined according to Clinical and Standards Laboratory Institute (CLSI) guidelines. Blood agar plates were inoculated from glycerol stocks of the different A. baumannii strains used and then incubated for 16 h at 37 °C . Individually grown colonies were subsequently used to inoculate 5 mL aliquots of TSB that were then incubated at 37 °C. In parallel, the lipopeptide antibiotics DMSO stocks to be assessed were serially diluted with cation-adjusted MHB in polypropylene 96-well plates (50 µL in each well). Colistin sulfate stocks were dissolved in water before being diluted with cation-adjusted MHB. The A. baumannii inoculated TSB aliquots were incubated until an OD600 of around 0.5 was reached. The bacterial suspensions were then diluted with cation-adjusted MHB (2 x 10^5 CFU mL-1) and added to the microplates containing the test compounds (50 µL to each well). The well-plates were sealed with an adhesive membrane and after 18 h of incubation at 37 °C visually inspected for bacterial growth. MIC values reported are based on three technical replicates and defined as the lowest concentration of the compound that prevented visible

A. baumannii ATCC 17978 = conditions: ATCC 17978, 18 h
Experimental: as §4, §5, §6, §7, §8

A. baumannii BV94 = conditions: BV94, 18 h
Experimental: as §4, §5, §6, §7, §8

A. baumannii NCTC 13304 = conditions: NCTC 13304, 18 h
Experimental: as §4, §5, §6, §7, §8

A. baumannii HUMC1 = conditions: HUMC1, 18 h
Experimental: as §4, §5, §6, §7, §8

A. baumannii BV95 = conditions: BV95, 18 h
Experimental: as §4, §5, §6, §7, §8

A. baumannii BV173 = conditions: BV173, 18 h
Experimental: as §4, §5, §6, §7, §8

A. baumannii BV172 = conditions: BV172, 18 h
Experimental: as §4, §5, §6, §7, §8

A. baumannii NCTC 13420 = conditions: NCTC 13420, 18 h
Experimental: as §4, §5, §6, §7, §8

Compound	MIC E. coli ATCC 25922 mcr-1 (E. coli ATCC 25922 mcr-1) [µg/mL]	MIC K. pneumoniae ATCC 13883 (K. pneumoniae ATCC 13883) [µg/mL]	MIC S. aureus USA300 (S. aureus USA300) [µg/mL]	MIC E. coli ATCC 25922 (E. coli ATCC 25922) [µg/mL]	MIC P. aeruginosa PAO1 (P. aeruginosa PAO1) [µg/mL]	MIC A. baumannii LAC-4 (A. baumannii LAC-4) [µg/mL]	MIC A. baumannii ATCC 17978 (A. baumannii ATCC 17978) [µg/mL]	MIC A. baumannii BV94 (A. baumannii BV94) [µg/mL]	MIC A. baumannii NCTC 13304 (A. baumannii NCTC 13304) [µg/mL]	MIC A. baumannii HUMC1 (A. baumannii HUMC1) [µg/mL]	MIC A. baumannii BV95 (A. baumannii BV95) [µg/mL]	MIC A. baumannii BV173 (A. baumannii BV173) [µg/mL]	MIC A. baumannii BV172 (A. baumannii BV172) [µg/mL]	MIC A. baumannii NCTC 13420 (A. baumannii NCTC 13420) [µg/mL]
CCC(C)CCC(=O)N[C@H](CO)C(=O)N[C@H](Cc1ccc(O)cc1)C(=O)N[C@H](Cc1c[nH]c2ccccc12)C(=O)N[C@H](CCCN)C(=O)N[C@@H](CCCN)C(=O)NCC(=O)N[C@H](CCCN)C(=O)N[C@@H](Cc1c[nH]c2ccccc12)C(=O)N[C@@H]1C(=O)N[C@@H]([C@@H](C)CC)C(=O)NCC(=O)N[C@H](CO)C(=O)N[C@H](C)C(=O)O[C@@H]1C (stereo partly drawn) [4d, D-Ala13, D-Ser12-Relacdine B] ({Hexanoyl(4ξ-Me)}-[dS][dY][dW][dOrn][Orn]G[dOrn]WTIG[dS][dA]; ester 9-C)	2 to 4	2 to 4	>32	2 (≈ 1.28 µM)	8 (≈ 5.12 µM)	–	–	–	–	–	–	–	–	–
CCC(C)CCC(=O)N[C@H](CO)C(=O)N[C@H](Cc1ccc(O)cc1)C(=O)N[C@H](Cc1c[nH]c2ccccc12)C(=O)N[C@H](CCCN)C(=O)N[C@@H](CCCN)C(=O)NCC(=O)N[C@H](CCCN)C(=O)N[C@@H](Cc1c[nH]c2ccccc12)C(=O)N[C@@H]1C(=O)N[C@@H]([C@@H](C)CC)C(=O)NCC(=O)N[C@H](CO)C(=O)N[C@@H](C)C(=O)O[C@@H]1C (stereo partly drawn) [4c, L-Ala13, D-Ser12-Relacdine B] ({Hexanoyl(4ξ-Me)}-[dS][dY][dW][dOrn][Orn]G[dOrn]WTIG[dS]A; ester 9-C)	1 to 2	2 to 4	>32	1 to 2	4 (≈ 2.56 µM)	–	–	–	–	–	–	–	–	–
CCC(C)CCC(=O)N[C@H](CO)C(=O)N[C@H](Cc1ccc(O)cc1)C(=O)N[C@H](Cc1c[nH]c2ccccc12)C(=O)N[C@H](CCCN)C(=O)N[C@@H](CCCN)C(=O)NCC(=O)N[C@H](CCCN)C(=O)N[C@@H](Cc1c[nH]c2ccccc12)C(=O)N[C@@H]1C(=O)N[C@@H]([C@@H](C)CC)C(=O)NCC(=O)N[C@@H](CO)C(=O)N[C@H](C)C(=O)O[C@@H]1C (stereo partly drawn) [4b, D-Ala13, L-Ser12-Relacidine B] ({Hexanoyl(4ξ-Me)}-[dS][dY][dW][dOrn][Orn]G[dOrn]WTIGS[dA]; ester 9-C)	2 to 4	4 (≈ 2.56 µM)	>32	2 (≈ 1.28 µM)	4 (≈ 2.56 µM)	–	–	–	–	–	–	–	–	–
CCC(C)CCC(=O)N[C@H](CO)C(=O)N[C@H](Cc1ccc(O)cc1)C(=O)N[C@H](Cc1c[nH]c2ccccc12)C(=O)N[C@H](CCCN)C(=O)N[C@@H](CCCN)C(=O)NCC(=O)N[C@H](CCCN)C(=O)N[C@@H](Cc1c[nH]c2ccccc12)C(=O)N[C@@H]1C(=O)N[C@@H]([C@@H](C)CC)C(=O)NCC(=O)N[C@@H](CO)C(=O)N[C@@H](C)C(=O)O[C@@H]1C (stereo partly drawn) [4a, Relacidine B] ({Hexanoyl(4ξ-Me)}-[dS][dY][dW][dOrn][Orn]G[dOrn]WTIGSA; ester 9-C)	2 (≈ 1.28 µM)	4 (≈ 2.56 µM)	>32	1 (≈ 0.639 µM)	4 (≈ 2.56 µM)	8 (≈ 5.12 µM)	4 (≈ 2.56 µM)	16 (≈ 10.2 µM)	4 (≈ 2.56 µM)	8 (≈ 5.12 µM)	8 (≈ 5.12 µM)	16 (≈ 10.2 µM)	16 (≈ 10.2 µM)	16 (≈ 10.2 µM)
CCC(C)CCC(=O)N[C@H](CO)C(=O)N[C@H](Cc1ccc(O)cc1)C(=O)N[C@H](Cc1c[nH]c2ccccc12)C(=O)N[C@H](CCCN)C(=O)N[C@@H](CCCN)C(=O)NCC(=O)N[C@H](CCCN)C(=O)N[C@@H](Cc1c[nH]c2ccccc12)C(=O)N[C@@H]1C(=O)N[C@@H]([C@@H](C)CC)C(=O)NCC(=O)N[C@H](CO)C(=O)NCC(=O)O[C@@H]1C (stereo partly drawn) [3b, D-Ser12-Relacidine A] ({Hexanoyl(4ξ-Me)}-[dS][dY][dW][dOrn][Orn]G[dOrn]WTIG[dS]G; ester 9-C)	4 (≈ 2.58 µM)	4 (≈ 2.58 µM)	>32	2 to 4	2 (≈ 1.29 µM)	–	–	–	–	–	–	–	–	–
CCC(C)CCC(=O)N[C@H](CO)C(=O)N[C@H](Cc1ccc(O)cc1)C(=O)N[C@H](Cc1c[nH]c2ccccc12)C(=O)N[C@H](CCCN)C(=O)N[C@@H](CCCN)C(=O)NCC(=O)N[C@H](CCCN)C(=O)N[C@@H](Cc1c[nH]c2ccccc12)C(=O)N[C@@H]1C(=O)N[C@@H]([C@@H](C)CC)C(=O)NCC(=O)N[C@@H](CO)C(=O)NCC(=O)O[C@@H]1C (stereo partly drawn) [3a, Relacidine A] ({Hexanoyl(4ξ-Me)}-[dS][dY][dW][dOrn][Orn]G[dOrn]WTIGSG; ester 9-C)	2 to 4	4 (≈ 2.58 µM)	>32	2 (≈ 1.29 µM)	4 (≈ 2.58 µM)	4 (≈ 2.58 µM)	8 (≈ 5.16 µM)	8 (≈ 5.16 µM)	4 (≈ 2.58 µM)	16 (≈ 10.3 µM)	8 (≈ 5.16 µM)	8 (≈ 5.16 µM)	16 (≈ 10.3 µM)	8 (≈ 5.16 µM)
